Read-outs that look alike come from different tables or passages of the source.
Assays:
[1] = final pH 4.5, 2 hours, 20° C.
Method: (§1) The following synthetic mixtures were prepared, with a final pH of 4.5:
(§2) After 2 hours' incubation in a shaker incubator (20° C.) samples were taken and the dissolved concentration of each of these components was determined.

[2] = Effect of PGA and AMPI on the solubility of 6-APA (dissolved concentrations in synthetic mixtures); conditions: final pH 4.5, 2 hours, 20° C.
Method: as §1, §2

[3] = Effect of PGA and CEX on the solubility of 7-ADCA (dissolved concentrations in synthetic mixtures); conditions: final pH 4.5, 2 hours, 20° C.
Method: Effect of PGA and PEX on the Solubility of 7-ADCA
The following synthetic mixtures were prepared, with a final pH of 4.5;
3% (m/m) 7-ADCA and 3.0% (m/m) CEX.H2O in water.
as §2

[4] = Example II Mixture 2: 3% (m/m) 6-APA and 0.4% (m/m) PG in water
[5] = Example II Mixture 3: 3% (m/m) 6-APA, 0.4% (m/m) PG and 1.5% (m/m) PGA in water
[6] = Example II Mixture 4: 3% (m/m) 6-APA, 0.4% (m/m) PG, 1.5% (m/m) PGA and 3.0% (m/m) AMPI in water
[7] = Example I Mixture 3: 3% (m/m) 7-ADCA, 0.4% (m/m) PG and 1.5% (m/m) PGA in water
[8] = Example I Mixture 4: 3% (m/m) 7-ADCA, 0.4% (m/m) PC, 1.5% (m/m) PGA and 3.0% (m/m) CEX.H2O in water

Row | dissolved concentration [2, 5] | dissolved concentration [2, 6] | Dissolved Concentrations ([3]; Example I Mixture 2: 3% (m/m) 7-ADCA and 0.4% (m/m) PG in water) | Dissolved Concentrations [3, 7] | Dissolved Concentrations [3, 8] | Compound | Dissolved Concentrations ([1]; Example III Mixture 1: 3% (m/m) 6-APA in water) | Dissolved Concentrations ([1]; Example III Mixture 2: 3% (m/m) 6-APA and 0.5% (m/m) HPG in water) | Dissolved Concentrations ([1]; Example III Mixture 3: 3% (m/m) 6-APA, 0.5% (m/m) HPG and 1.5% (m/m) HPGA in water) | Dissolved Concentrations ([1]; Example III Mixture 4: 3% (m/m) 6-APA, 0.5% (m/m) HPG and 2.0% HPG-Me in water) | Dissolved Concentrations ([1]; Example III Mixture 5: 3% (m/m) 6-APA, 0.5% (m/m) HPG, 1.5% (m/m) HPGA and 3.0% AMOX in water) | Dissolved Concentrations ([1]; Example III Mixture 6: 3.0% (m/m) 6-APA, 0.5% (m/m) HPG, 2.0% (m/m) HPG-Me and 3.0% (m/m) AMOX in water) | dissolved concentration ([2]; Example II Mixture 1: 3% (m/m) 6-APA in water) | dissolved concentration [2, 4]
1 | 0.4 | 0.4 | 0.40 % (m/m) | 0.40 % (m/m) | 0.40 % (m/m) | N[C@@H](C(=O)O)c1ccccc1 [PG, D-phenyl glycine] |  |  |  |  |  |  |  | 0.4
2 | 1.5 | 1.5 |  | 1.5 % (m/m) | 1.5 % (m/m) | NC(=O)[C@H](N)c1ccccc1 [PGA, D-phenyl glycine amide] |  |  |  |  |  |  |  | 

Row | Compound | dissolved concentration [2, 5] | dissolved concentration [2, 6] | Dissolved Concentrations ([3]; Example I Mixture 2: 3% (m/m) 7-ADCA and 0.4% (m/m) PG in water) | Dissolved Concentrations [3, 7] | Dissolved Concentrations [3, 8] | Dissolved Concentrations ([1]; Example III Mixture 1: 3% (m/m) 6-APA in water) | Dissolved Concentrations ([1]; Example III Mixture 2: 3% (m/m) 6-APA and 0.5% (m/m) HPG in water) | Dissolved Concentrations ([1]; Example III Mixture 3: 3% (m/m) 6-APA, 0.5% (m/m) HPG and 1.5% (m/m) HPGA in water) | Dissolved Concentrations ([1]; Example III Mixture 4: 3% (m/m) 6-APA, 0.5% (m/m) HPG and 2.0% HPG-Me in water) | Dissolved Concentrations ([1]; Example III Mixture 5: 3% (m/m) 6-APA, 0.5% (m/m) HPG, 1.5% (m/m) HPGA and 3.0% AMOX in water) | Dissolved Concentrations ([1]; Example III Mixture 6: 3.0% (m/m) 6-APA, 0.5% (m/m) HPG, 2.0% (m/m) HPG-Me and 3.0% (m/m) AMOX in water) | dissolved concentration ([2]; Example II Mixture 1: 3% (m/m) 6-APA in water) | dissolved concentration [2, 4]
3 | CC1(C)S[C@@H]2[C@H](N)C(=O)N2[C@H]1C(=O)O [6-APA, 6-aminopenicillanic acid] | 0.40 | 0.90 |  |  |  | 0.35 % (m/m) | 0.35 % (m/m) | 0.40 % (m/m) | 0.50 % (m/m) | 1.40 % (m/m) | 2.15 % (m/m) | 0.35 | 0.40
